Data: patent publication US9963445B2, “Chemical compounds” (SYNGENTA PARTICIPATIONS AG, priority 2013, dated 2018)

Each molecule was assayed on Echinochloa crus-galli (assay: Post-emergence herbicidal activity, glasshouse pot test). Settings: Application post-emergence, rate 1000 g/ha, evaluated after 13 days.
Format: in vivo
Parameters: key: 0 = no damage to plant, 5 = total damage to plant
Summary of the method: (§1)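 Damage rated 0 (none) to 5 (total) 13 days after spraying. Plants were treated post-emergence at 8 days after sowing, using an acetone/water (50:50) formulation with 0.5% Tween 20 diluted to an aqueous spray.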

In order of falling “ECHCG herbicidal damage score” value:
1. COC1=C(OC)C(O)N(c2cc(Br)ccn2)C1=O (stereo not drawn) [AK5]  5
2. COC1=C(OC)C(O)N(c2cc(Cl)c(Cl)cn2)C1=O (stereo not drawn) [AK7]  5
3. COC1=C(OC)C(O)N(c2cc(C(F)(F)F)ccn2)C1=O (stereo not drawn) [AK8]  5
4. CC1=C(Cl)C(=O)N(c2cc(C(C)(C)C)c(Cl)nn2)C1O (stereo not drawn) [BF1]  5
5. COc1nnc(N2C(=O)C(Cl)=C(C)C2O)cc1C (stereo not drawn) [BF6]  5
6. CC1=C(Cl)C(=O)N(c2ccc(C(F)(F)F)nn2)C1O (stereo not drawn) [BF7]  3
7. COC1=C(OC)C(O)N(c2cc(OC)ccn2)C1=O (stereo not drawn) [AK6]  1

These molecules were tested on Amaranthus retroflexus in the same assay as above. Settings: Application post-emergence, rate 1000 g/ha, evaluated after 13 days.
Format: in vivo
Parameters: key: 0 = no damage to plant, 5 = total damage to plant
Summary of the method: as §1

In order of falling “AMARE herbicidal damage score” value:
1. COC1=C(OC)C(O)N(c2cc(Br)ccn2)C1=O (stereo not drawn) [AK5]  5
2. COC1=C(OC)C(O)N(c2cc(Cl)c(Cl)cn2)C1=O (stereo not drawn) [AK7]  5
3. COC1=C(OC)C(O)N(c2cc(C(F)(F)F)ccn2)C1=O (stereo not drawn) [AK8]  5
4. CC1=C(Cl)C(=O)N(c2cc(C(C)(C)C)c(Cl)nn2)C1O (stereo not drawn) [BF1]  5
5. COc1nnc(N2C(=O)C(Cl)=C(C)C2O)cc1C (stereo not drawn) [BF6]  5
6. CC1=C(Cl)C(=O)N(c2ccc(C(F)(F)F)nn2)C1O (stereo not drawn) [BF7]  2
7. COC1=C(OC)C(O)N(c2cc(OC)ccn2)C1=O (stereo not drawn) [AK6]  0

These molecules were tested on Abutilon theophrasti in the same assay as above. Settings: Application post-emergence, rate 1000 g/ha, evaluated after 13 days.
Format: in vivo
Parameters: key: 0 = no damage to plant, 5 = total damage to plant
Summary of the method: as §1

In order of rising “ABUTH herbicidal damage score” value:
1. COC1=C(OC)C(O)N(c2cc(OC)ccn2)C1=O (stereo not drawn) [AK6]  1
2. CC1=C(Cl)C(=O)N(c2ccc(C(F)(F)F)nn2)C1O (stereo not drawn) [BF7]  2
3. COC1=C(OC)C(O)N(c2cc(Br)ccn2)C1=O (stereo not drawn) [AK5]  5
4. COC1=C(OC)C(O)N(c2cc(Cl)c(Cl)cn2)C1=O (stereo not drawn) [AK7]  5
5. COC1=C(OC)C(O)N(c2cc(C(F)(F)F)ccn2)C1=O (stereo not drawn) [AK8]  5
6. CC1=C(Cl)C(=O)N(c2cc(C(C)(C)C)c(Cl)nn2)C1O (stereo not drawn) [BF1]  5
7. COc1nnc(N2C(=O)C(Cl)=C(C)C2O)cc1C (stereo not drawn) [BF6]  5

The molecules below were run on Setaria faberi in the same assay as above. Settings: Application post-emergence, rate 1000 g/ha, evaluated after 13 days.
Format: in vivo
Parameters: key: 0 = no damage to plant, 5 = total damage to plant
Summary of the method: as §1

In order of falling “SETFA herbicidal damage score” value:
1. COC1=C(OC)C(O)N(c2cc(Br)ccn2)C1=O (stereo not drawn) [AK5]  5
2. COC1=C(OC)C(O)N(c2cc(Cl)c(Cl)cn2)C1=O (stereo not drawn) [AK7]  5
3. COC1=C(OC)C(O)N(c2cc(C(F)(F)F)ccn2)C1=O (stereo not drawn) [AK8]  5
4. COc1nnc(N2C(=O)C(Cl)=C(C)C2O)cc1C (stereo not drawn) [BF6]  5
5. CC1=C(Cl)C(=O)N(c2cc(C(C)(C)C)c(Cl)nn2)C1O (stereo not drawn) [BF1]  4
6. CC1=C(Cl)C(=O)N(c2ccc(C(F)(F)F)nn2)C1O (stereo not drawn) [BF7]  4
7. COC1=C(OC)C(O)N(c2cc(OC)ccn2)C1=O (stereo not drawn) [AK6]  0

What follows are molecules tested on zea mays in the same assay as above. Settings: Application post-emergence, rate 1000 g/ha, evaluated after 13 days.
Format: in vivo
Parameters: key: 0 = no damage to plant, 5 = total damage to plant
Summary of the method: as §1

In order of rising “ZEAMX herbicidal damage score” value:
1. COC1=C(OC)C(O)N(c2cc(Br)ccn2)C1=O (stereo not drawn) [AK5]  0
2. COC1=C(OC)C(O)N(c2cc(OC)ccn2)C1=O (stereo not drawn) [AK6]  0
3. COC1=C(OC)C(O)N(c2cc(Cl)c(Cl)cn2)C1=O (stereo not drawn) [AK7]  1
4. CC1=C(Cl)C(=O)N(c2cc(C(C)(C)C)c(Cl)nn2)C1O (stereo not drawn) [BF1]  2
5. CC1=C(Cl)C(=O)N(c2ccc(C(F)(F)F)nn2)C1O (stereo not drawn) [BF7]  2
6. COC1=C(OC)C(O)N(c2cc(C(F)(F)F)ccn2)C1=O (stereo not drawn) [AK8]  3
7. COc1nnc(N2C(=O)C(Cl)=C(C)C2O)cc1C (stereo not drawn) [BF6]  4

Each molecule was assayed on Alopecurus myosuroides in the same assay as above. Settings: Application post-emergence, rate 1000 g/ha, evaluated after 13 days.
Format: in vivo
Parameters: key: 0 = no damage to plant, 5 = total damage to plant
Summary of the method: as §1

In order of rising “ALOMY herbicidal damage score” value:
1. COC1=C(OC)C(O)N(c2cc(OC)ccn2)C1=O (stereo not drawn) [AK6]  1
2. CC1=C(Cl)C(=O)N(c2ccc(C(F)(F)F)nn2)C1O (stereo not drawn) [BF7]  2
3. COC1=C(OC)C(O)N(c2cc(Cl)c(Cl)cn2)C1=O (stereo not drawn) [AK7]  4
4. COC1=C(OC)C(O)N(c2cc(C(F)(F)F)ccn2)C1=O (stereo not drawn) [AK8]  4
5. CC1=C(Cl)C(=O)N(c2cc(C(C)(C)C)c(Cl)nn2)C1O (stereo not drawn) [BF1]  4
6. COC1=C(OC)C(O)N(c2cc(Br)ccn2)C1=O (stereo not drawn) [AK5]  5
7. COc1nnc(N2C(=O)C(Cl)=C(C)C2O)cc1C (stereo not drawn) [BF6]  5

What follows are molecules tested on Echinochloa crus-galli (assay: Pre-emergence herbicidal activity, glasshouse pot test). Settings: pre-emergence spray, rate 1000 g/ha, evaluated after 13 days, scale 0-5.
Format: in vivo
Summary of the method: (§2)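 Damage was rated at 13 days from 0 (none) to 5 (total), in a glasshouse kept at 24/16 °C, 14 h light and 65% humidity with watering twice daily. The aqueous spray of active ingredient in 50:50 acetone/water plus 0.5% Tween 20 was applied to soil one day post-sowing, before emergence.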

In order of falling “ECHCG damage score, application pre-emergence” value:
1. COc1nnc(N2C(=O)C(Cl)=C(C)C2O)cc1C (stereo not drawn) [BF6]  5
2. COC1=C(OC)C(O)N(c2cc(Br)ccn2)C1=O (stereo not drawn) [AK5]  4
3. COC1=C(OC)C(O)N(c2cc(Cl)c(Cl)cn2)C1=O (stereo not drawn) [AK7]  4
4. COC1=C(OC)C(O)N(c2cc(C(F)(F)F)ccn2)C1=O (stereo not drawn) [AK8]  4
5. CC1=C(Cl)C(=O)N(c2ccc(C(F)(F)F)nn2)C1O (stereo not drawn) [BF7]  3
6. CC1=C(Cl)C(=O)N(c2cc(C(C)(C)C)c(Cl)nn2)C1O (stereo not drawn) [BF1]  2
7. COC1=C(OC)C(O)N(c2cc(OC)ccn2)C1=O (stereo not drawn) [AK6]  0

What follows are molecules tested on Amaranthus retroflexus in the same assay as above. Settings: pre-emergence spray, rate 1000 g/ha, evaluated after 13 days, scale 0-5.
Format: in vivo
Summary of the method: as §2

In order of falling “AMARE damage score, application pre-emergence” value:
1. COC1=C(OC)C(O)N(c2cc(C(F)(F)F)ccn2)C1=O (stereo not drawn) [AK8]  5
2. CC1=C(Cl)C(=O)N(c2cc(C(C)(C)C)c(Cl)nn2)C1O (stereo not drawn) [BF1]  5
3. COc1nnc(N2C(=O)C(Cl)=C(C)C2O)cc1C (stereo not drawn) [BF6]  5
4. CC1=C(Cl)C(=O)N(c2ccc(C(F)(F)F)nn2)C1O (stereo not drawn) [BF7]  4
5. COC1=C(OC)C(O)N(c2cc(Br)ccn2)C1=O (stereo not drawn) [AK5]  1
6. COC1=C(OC)C(O)N(c2cc(OC)ccn2)C1=O (stereo not drawn) [AK6]  0
7. COC1=C(OC)C(O)N(c2cc(Cl)c(Cl)cn2)C1=O (stereo not drawn) [AK7]  0

These molecules were tested on Abutilon theophrasti in the same assay as above. Settings: pre-emergence spray, rate 1000 g/ha, evaluated after 13 days, scale 0-5.
Format: in vivo
Summary of the method: as §2

In order of falling “ABUTH damage score, application pre-emergence” value:
1. COC1=C(OC)C(O)N(c2cc(C(F)(F)F)ccn2)C1=O (stereo not drawn) [AK8]  5
2. CC1=C(Cl)C(=O)N(c2cc(C(C)(C)C)c(Cl)nn2)C1O (stereo not drawn) [BF1]  4
3. COc1nnc(N2C(=O)C(Cl)=C(C)C2O)cc1C (stereo not drawn) [BF6]  4
4. CC1=C(Cl)C(=O)N(c2ccc(C(F)(F)F)nn2)C1O (stereo not drawn) [BF7]  4
5. COC1=C(OC)C(O)N(c2cc(Cl)c(Cl)cn2)C1=O (stereo not drawn) [AK7]  2
6. COC1=C(OC)C(O)N(c2cc(Br)ccn2)C1=O (stereo not drawn) [AK5]  0
7. COC1=C(OC)C(O)N(c2cc(OC)ccn2)C1=O (stereo not drawn) [AK6]  0

The molecules below were run on Setaria faberi in the same assay as above. Settings: pre-emergence spray, rate 1000 g/ha, evaluated after 13 days, scale 0-5.
Format: in vivo
Summary of the method: as §2

In order of falling “SETFA damage score, application pre-emergence” value:
1. CC1=C(Cl)C(=O)N(c2ccc(C(F)(F)F)nn2)C1O (stereo not drawn) [BF7]  4
2. COC1=C(OC)C(O)N(c2cc(C(F)(F)F)ccn2)C1=O (stereo not drawn) [AK8]  3
3. CC1=C(Cl)C(=O)N(c2cc(C(C)(C)C)c(Cl)nn2)C1O (stereo not drawn) [BF1]  3
4. COc1nnc(N2C(=O)C(Cl)=C(C)C2O)cc1C (stereo not drawn) [BF6]  3
5. COC1=C(OC)C(O)N(c2cc(Br)ccn2)C1=O (stereo not drawn) [AK5]  1
6. COC1=C(OC)C(O)N(c2cc(OC)ccn2)C1=O (stereo not drawn) [AK6]  0
7. COC1=C(OC)C(O)N(c2cc(Cl)c(Cl)cn2)C1=O (stereo not drawn) [AK7]  0

What follows are molecules tested on zea mays in the same assay as above. Settings: pre-emergence spray, rate 1000 g/ha, evaluated after 13 days, scale 0-5.
Format: in vivo
Summary of the method: as §2

In order of rising “ZEAMX damage score, application pre-emergence” value:
1. COC1=C(OC)C(O)N(c2cc(Br)ccn2)C1=O (stereo not drawn) [AK5]  0
2. COC1=C(OC)C(O)N(c2cc(OC)ccn2)C1=O (stereo not drawn) [AK6]  0
3. COC1=C(OC)C(O)N(c2cc(Cl)c(Cl)cn2)C1=O (stereo not drawn) [AK7]  0
4. CC1=C(Cl)C(=O)N(c2cc(C(C)(C)C)c(Cl)nn2)C1O (stereo not drawn) [BF1]  1
5. CC1=C(Cl)C(=O)N(c2ccc(C(F)(F)F)nn2)C1O (stereo not drawn) [BF7]  1
6. COC1=C(OC)C(O)N(c2cc(C(F)(F)F)ccn2)C1=O (stereo not drawn) [AK8]  2
7. COc1nnc(N2C(=O)C(Cl)=C(C)C2O)cc1C (stereo not drawn) [BF6]  2

Each molecule was assayed on Alopecurus myosuroides in the same assay as above. Settings: pre-emergence spray, rate 1000 g/ha, evaluated after 13 days, scale 0-5.
Format: in vivo
Summary of the method: as §2

In order of rising “ALOMY damage score, application pre-emergence” value:
1. COC1=C(OC)C(O)N(c2cc(OC)ccn2)C1=O (stereo not drawn) [AK6]  0
2. COC1=C(OC)C(O)N(c2cc(Cl)c(Cl)cn2)C1=O (stereo not drawn) [AK7]  0
3. COC1=C(OC)C(O)N(c2cc(Br)ccn2)C1=O (stereo not drawn) [AK5]  1
4. CC1=C(Cl)C(=O)N(c2cc(C(C)(C)C)c(Cl)nn2)C1O (stereo not drawn) [BF1]  2
5. CC1=C(Cl)C(=O)N(c2ccc(C(F)(F)F)nn2)C1O (stereo not drawn) [BF7]  2
6. COC1=C(OC)C(O)N(c2cc(C(F)(F)F)ccn2)C1=O (stereo not drawn) [AK8]  3
7. COc1nnc(N2C(=O)C(Cl)=C(C)C2O)cc1C (stereo not drawn) [BF6]  3
